From US20210403922A1 (CRISP-HR Therapeutics, Inc., priority 2019, published 2021)
“Also recorded” adds a separate entry of the source.

Legend:
HBB genomic region = experiment: Sanger sequencing of the HBB genomic region after Cas9 and gRNA transfection; type: cell-based, Human; settings: FIG. 6C / FIG. 13B, A549 cells, unmodified Cas9
A549 cells = experiment: Resazurin reduction assay, gRNA targeting exon 1 of HBB gene; type: cell-based, Human; settings: FIG. 6B / FIG. 13A
Protocol: Cells are cultured in a 96-well plate and each well is seeded with about 2.5×10^4 cells. Each column of the 96-well plate receives a treatment with different plasmid respectively. […] The cells in the first column are transfected with plasmids encoding the first fusion protein as shown in FIG. 1; the cells in the second column with plasmids encoding the second fusion protein as shown in FIG. 1; the cells in the third column with plasmids encoding the third fusion protein as shown in FIG. 1; the cells in the fourth column with plasmids encoding the fourth fusion protein as shown in FIG. 1; the cells in the fifth column with plasmids encoding the fifth fusion protein as shown in FIG. 1; the cells in the sixth column with plasmids encoding the sixth fusion protein as shown in FIG. 1; the cells in the seventh column with plasmids encoding the seventh fusion protein as shown in FIG. 1; the cells in the eighth column with plasmids encoding the eighth fusion protein as shown in FIG. 1; and the cells in the ninth column with plasmids encoding the ninth fusion protein as shown in FIG. 1. […] The cells in the twelfth column are transfected with plasmids encoding GFPs. The cells in the […] are controls without any treatment.
Each of the plasmid constructs also contained a nucleotide sequence encoding a gRNA directed to recognize exon 1 of the human HBB gene. […] Three gRNA sequences as listed in Table 2 directed to recognize one of HBB gene's exon were used.
Toxicity was quantified using Resazurin as in Example 1.

[1] = test system: phosphorylated 5′-double strand DNA ends; settings: cited from earlier work

## HBB-G1: gRNA designed to target Exon 1 of the HBB gene, SEQ ID NO: 21 (guide GUAACGGCAGACUUCUCCUC; chemistry not given here)
HBB genomic region
  Cas9 cleavage and repair via NHEJ (INDELs) by Sanger sequencing: could not be detected

## HBB-G3: gRNA designed to target Exon 1 of the HBB gene, SEQ ID NO: 23 (guide GAGGUGAACGUGGAUGAAGU; chemistry not given here)
A549 cells
  cellular toxicity of HBB gRNA guides with unmodified Cas9 (NT): higher toxicity than either HBB-G1 or HBB-G2
A549 cells; listed as NT HBB-G3
  cellular toxicity of HBB gRNA guides with unmodified Cas9 (NT): smallest normalized fold change number
A549 cells; listed as gRNA G3
  cellular toxicity of HBB gRNA guides with unmodified Cas9 (NT): highest cellular toxicity
HBB genomic region
  Cas9 cleavage and repair via NHEJ (INDELs) by Sanger sequencing: characteristic noise following Cas9 cleavage and repair via NHEJ pathways; also recorded: significant cleavage
HBB genomic region; listed as Cas9 HBB-G3
  Cas9 cleavage and repair via NHEJ (INDELs) by Sanger sequencing: generation of INDELs

B1: hExo1: human Exo1 exonuclease; N-terminal nuclease region SEQ ID NO: 1 (protein, listed as Homo sapiens)
chain: MGIQGLLQFIKEASEPIHVRKYKGQVVAVDTYCWLHKGAIACAEKLAKGEPTDRYVGFCMKFVNMLLSHGIKPILVFDGCTLPSKKEVERSRRERRQANLLKGKQLLREGKVSEARECFTRSINITHAMAHKVIKAARSQGVDCLVAPYEADAQLAYLNKAGIVQAIITEDSDLLAFGCKKVILKMDQFGNGLEIDQARLGMCRQLGDVFTEEKFRYMCILSGCDYLSSLRGIGLAKACKVLRLANNPDIVKVIKKIGHYLKMNITVPEDYINGFIRANNTFLYQLVFDPIKRKLIPLNAYEDDVDPETLSYAGQYVDDSIALQIALGNKDINTFEQIDDYNPDTAMPAHSRSHSWDDKTCQKSANVSSIWHRNYSPRPESGTVSDAPQLKE
[1]
  affinity for phosphorylated 5′-double strand DNA ends as for unphosphorylated: roughly 10 ×
